Where a name gives a salt, the structure may show the parent alone. Read-outs that look alike come from different tables or passages of the source.
What was measured:
[1] = for Colour/Aspect 10 months later / Purity (HPLC) 10 months later / XRD result 10 months later: room temperature, ambient atmosphere; for Purity (HPLC) % initial / XRD result Initial: before storage
[2] = Particle size studies of rasagiline salts (Malvern Mastersizer S); settings: particle size by volume, suspended in Isopar G with soybean lecithin
[3] = Accelerated stability studies of rasagiline salts (40° C. and 75% RH; PE and AL bags); format: physicochemical; settings: for XRD 1st Month / XRD 2nd Month / Purity (HPLC) 1st Month / Purity (HPLC) 2nd Month: 40° C. and 75% RH; for XRD 1st Month / Purity (HPLC) 1st Month: 1 month; for XRD 2nd Month / Purity (HPLC) 2nd Month: 2 months
Protocol: Rasagiline salts were submitted to accelerated conditions (40° C. and 75% RH) in two types of bags: polyethylene (PE) and aluminium (AL) bags. The samples were characterized by HPLC, XRD, and visual inspection.

[4] = Flowability studies of rasagiline salts (bulk and tapped density, Hausner ratio); settings: for Flowability: flow character by Hausner ratio; for Bulk density: freely settled; for Hausner ratio: tapped bulk density divided by bulk density
physchem = settings: water
Protocol: The mother liquors were analyzed by HPLC.

[5] = 40° C. and 75% RH for one and two months
[6] = room temperature, stirred until equilibration, HPLC
[7] = listed as rasagiline besylate Form I
[8] = listed as rasagiline succinate Form I

Compound	Colour/Aspect 10 months later [1]	Purity (HPLC) 10 months later [1] [%]	XRD result 10 months later [1]	Purity (HPLC) % initial [1] [%]	XRD result Initial [1]	stability after ten months of storage (in words) [1]	D(v, 0.1) [2] [μm]	D(v, 0.5) [2] [μm]	D(v, 0.9) [2] [μm]	Purity (HPLC) % initial [3] [%]	XRD Initial [3]	Tapped density [4] [g/mL]	Bulk density [4] [g/mL]	further results
C#CCN[C@@H]1CCc2ccccc21.O=C(O)[C@H]1OC(O)[C@H](O)[C@@H](O)[C@@H]1O [D-Glucuronate, rasagiline D-glucuronate]	brown oil	50.64	amorphous	86.00	amorphous	highly stable in terms of polymorphic form								
C#CCN[C@@H]1CCc2ccccc21.O=C(O)[C@@H](O)[C@H](O)[C@H](O)[C@@H](O)C(=O)O [Galactarate, rasagiline galactarate]		98.81		98.92		stable in terms of chemical purity and of polymorphic form								
C#CCN[C@@H]1CCc2ccccc21.O=C(O)[C@H](O)[C@@H](O)[C@H](O)[C@H](O)CO [Gluconate, rasagiline gluconate]	brown oil	96.36	amorphous	98.61	amorphous									
C#CCN[C@@H]1CCc2ccccc21.C#CCN[C@@H]1CCc2ccccc21.O=C(O)C(O)C(O)C(=O)O [Hemitartrate Form I, rasagiline L-hemitartrate]	white powder	98.86	Form I	99.14	Form I	highly stable in terms of visual aspect, chemical purity and of polymorphic form	4.5	18.3	78.8	99.27	Form I	0.181	0.138	stability under accelerated stability conditions (in words) [3, 5]: highly stable in terms of visual aspect, chemical purity and of polymorphic form; Flowability [4]: Passable (1.26-1.34); Flowability ([4]; listed as rasagiline L-hemitartrate Form I): passable; Flowability ([4]; listed as rasagiline L-hemitartrate salt Form I): excellent
C#CCN[C@@H]1CCc2ccccc21 [Hydrochloride Form II, rasagiline hydrochloride]							41.7	99.6	185.2	>99.9	Form II	0.673	0.673	stability under accelerated stability conditions (in words) [3, 5]: highly stable in terms of visual aspect, chemical purity and of polymorphic form; XRD 1st Month ([3]; AL bag): Form II; XRD 2nd Month ([3]; AL bag): Form II; XRD 1st Month ([3]; PE bag): Form II; XRD 2nd Month ([3]; PE bag): Form II; Purity (HPLC) 1st Month ([3]; aluminium (AL) bag): >99.9%; Purity (HPLC) 2nd Month ([3]; aluminium (AL) bag): >99.9%; Purity (HPLC) 1st Month ([3]; polyethylene (PE) bag): >99.9%; Purity (HPLC) 2nd Month ([3]; polyethylene (PE) bag): >99.9%; Solubility (physchem; thermodynamic from solid): ~400 mg/mL; Flowability ([4]; hydrochloride): Excellent (1.00-1.11); Flowability ([4]; listed as rasagiline hydrochloride Form II, hydrochloride): excellent; Flowability ([4]; listed as rasagiline hydrochloride salt Form II, hydrochloride): excellent
C#CCN[C@@H]1CCc2ccccc21 [Hydrochloride, rasagiline hydrochloride]	white powder	99.74	Form I	99.18	Form I	highly stable in terms of chemical purity and of polymorphic form								
C#CCN[C@@H]1CCc2ccccc21.CS(=O)(=O)O [Mesylate, R-(+)-N-propargyl-1-aminoindan mesylate, reference compound]	white powder	99.8	Form I	99.58	Form I							0.407	0.236	Flowability ([4]; listed as rasagiline mesylate, mesylate): very, very poor; Flowability ([4]; mesylate): Very, very poor (>1.60)
rasagiline besylate [Besylate Form I]							6.5	28.8	50.6	>99.9	Form I	0.435	0.427	stability under accelerated stability conditions (in words) ([3]; 40° C. and 75% RH for one month): stable in terms of chemical purity and of polymorphic form; XRD 1st Month ([3]; AL bag): Form I; Purity (HPLC) 1st Month ([3]; aluminium (AL) bag): >99.9%; Purity (HPLC) 1st Month ([3]; polyethylene (PE) bag): >99.9%; Descriptive term (solubility) (physchem; room temperature): Freely soluble; Solubility (physchem; [6]): >800 mg/mL; Solubility (physchem; room temperature, stirred until equilibration, HPLC, listed as rasagiline besylate Form I): > 800 mg/mL; Descriptive term (solubility) (physchem; room temperature, listed as rasagiline besylate Form I): freely soluble; Flowability [4]: Excellent (1.00-1.11); Flowability [4, 7]: excellent; Flowability ([4]; listed as rasagiline besylate salt Form I): excellent; Hausner ratio [4]: 1.02; Hausner ratio [4, 7]: 1.00
rasagiline fumarate		53.64		59.56	Form I									
rasagiline maleate	white powder	63.27		66.54	Form I									
rasagiline phosphate	white powder	99.60		98.45	amorphous									
rasagiline succinate [Succinate Form I]		99.61	Form I	99.29	Form I	highly stable in terms of visual aspect, chemical purity and of polymorphic form	23.6	85.1	180.4	>99.9	Form I	0.513	0.492	stability under accelerated stability conditions (in words) [3, 5]: highly stable in terms of visual aspect, chemical purity and of polymorphic form; XRD 1st Month ([3]; AL bag): Form I; XRD 2nd Month ([3]; AL bag): Form I; XRD 1st Month ([3]; PE bag): Form I; XRD 2nd Month ([3]; PE bag): Form I; Purity (HPLC) 1st Month ([3]; aluminium (AL) bag): >99.9%; Purity (HPLC) 2nd Month ([3]; aluminium (AL) bag): 99.92%; Purity (HPLC) 1st Month ([3]; polyethylene (PE) bag): >99.9%; Purity (HPLC) 2nd Month ([3]; polyethylene (PE) bag): 99.92%; Descriptive term (solubility) (physchem; room temperature): Very soluble; Solubility (physchem; [6]): >1200 mg/mL; Solubility (physchem; room temperature, stirred until equilibration, HPLC, listed as rasagiline succinate Form I): > 1200 mg/mL; Descriptive term (solubility) (physchem; room temperature, listed as rasagiline succinate Form I): very soluble; Flowability [4]: Excellent (1.00-1.11); Flowability [4, 8]: excellent; Flowability ([4]; listed as rasagiline succinate salt Form I): excellent; Hausner ratio [4]: 1.04; Hausner ratio [4, 8]: about 1.04
rasagiline tosylate		75.89	Form I	79.87	Form I	highly stable in terms of polymorphic form								

Source: patent US20100041920A1, “NEW SALT FORMS OF AN AMINOINDAN DERIVATIVE” (priority 2008, published 2010)
